Source: patent US8017786B2, “Substituted β-phenyl-α-hydroxy-propanoic acid, synthesis method and use thereof” (Northwest University, priority 2006, dated 2011)

How the values were obtained:
Type in all cases: in vivo, rat
creatine kinase (CK) = experiment: Serum CK activity in rats with myocardial ischemia; conditions: for CK: serum, 24 h after ligation
Experimental: (§1) At 0.5 h after the rats of these groups were administered intragastrically, the standard II lead electrocardiogram (before modeling) was recorded, and the height of ST-T segment was measured. The rats of sham operation group were then subjected to coronary artery braid without ligation, and the rats of other groups were subjected to coronary artery ligation in accordance with the following method to establish cute myocardial ischemia models. The rats were subjected to etherization, fixed at supine position, and their normal electrocardiograms (before modeling) were recorded. The skin of left thorax was incised under aseptic conditions, the 4th intercostal muscles were isolated in blunt way, the heart was extruded by light pressure to the right thorax, the left anterior descending coronary artery was ligated at a position 2˜3 mm departing from the left coronary artery origin and between the pulmonary conus and the left auricle of heart, then the heart was sent back to thorax cavity immediately and sutured the incision. Penicillin was smeared topically for the prevention of infections. After operation, the electrocardiogram of postischemia was recorded immediately (at 0 min after modeling), and the height of ST-T segment was measured.

[1] = test system: lactate dehydrogenase (LDH); experiment: Serum LDH activity in rats with myocardial ischemia; conditions: for LDH: serum, 24 h after ligation
Experimental: as §1

[2] = test system: rats with acute myocardial ischemia; experiment: ST-T segment of ECG in rats with myocardial ischemia
Experimental: as §1

PPARγ = experiment: Immunohistochemistry protein expression in I/R myocardial tissue: PPARγ; conditions: 5 days, ischemia 30 min, reperfusion 2 h
Experimental: (§2) 52 SD rats having a body weight of 220±20 g were randomly divided into model control group, salviannic acid injection group (in 1 mL/kg), and group of bornyl β-(3,4-dihydroxylphenyl)-α-hydroxylpropionate ester at a small, middle and large dose (ip 5, 15, 35 mg/kg). The rats of the normal group and the model control group were ip administered with equal-volume of physiologic saline. The rats of all groups were administered for consecutive 5 days. When the rats were administered for the last time, they were simultaneously anesthetized with 1.5% pentobarbital sodium (ip 45 mg/kg), then a catheter was inserted into the right carotid artery, and connected via a transducer to an eight-channeled physiological recorder. Tracheal cannula was performed, and the ventilation rate was maintained at 60 times/min. The chest was opened, a 6/0 suture was used to form a loop at a site 1˜2 mm from the root of the anterior descending coronary artery, and a plastic pipe was introduced through the loop, then the loop was tightened up. The change of electrocardiogram was observed. An increase or decrease of ST indicated the success of ligation. The color of the myocardial tissue below the ligation suture became darker. 30 minutes later, the plastic pipe was pulled out to allow coronary artery blood flowing again and cause hyperemia of local tissue during reperfusion. For the groups subjected to ischemia for 30 min and reperfusion for 30 min, the myocardial infarction areas were recorded before the test, after ischemia for 1 min and 30 min, and after reperfusion for 30 min; for the groups subjected to ischemia for 30 min and reperfusion for 2 h, cardiac tissue samples were taken and fixed using 10% formalin, embedded with paraffin, serially sliced into sections with a thickness of 4 μm, and separately subjected to immunohistochemistry tests; the rats of the sham operation group were subjected only to the introduction of suture but their coronary arteries were not ligated.
Standard immunohistochemistry ABC and SP methods were employed for staining. Bax: anti-rabbit polyclonal antibody (Santa CruzBio. Inc.) at a dilution of 1:200; […]: anti-rabbit polyclonal antibody (TBD Tianjin Biotechnological Center). At a dilution of […]; caspase-3: anti-rabbit polyclonal antibody (Normarkers Fromont, Calif.), at a dilution of 1:200; MMP-2: anti-murine monoclonal antibody (NormarkersFromont, Calif.) at a dilution of 1:200; PPARγ: anti-caprine polyclonal antibody (Santa Cruz Bio. Inc.), at a dilution of 1:500. The specific procedures were performed in accordance with the instructions of the ABC and SP kits, DAB was used for color development, and neutral resin was used for mounting. PBS was used instead of the first antibody as a negative control. […]

Bax = experiment: Immunohistochemistry protein expression in I/R myocardial tissue: Bax; conditions: for Bax protein expression, OD value: 5 days, ischemia 30 min, reperfusion 2 h
Experimental: as §2
(§3) Standard immunohistochemistry ABC and SP methods were employed for staining. Bax: anti-rabbit polyclonal antibody (Santa CruzBio. Inc.) at a dilution of 1:200; […]: anti-rabbit polyclonal antibody (TBD Tianjin Biotechnological Center). At a dilution of […]; caspase-3: anti-rabbit polyclonal antibody (Normarkers Fromont, Calif.), at a dilution of 1:200; MMP-2: anti-murine monoclonal antibody (NormarkersFromont, Calif.) at a dilution of 1:200; PPARγ: anti-caprine polyclonal antibody (Santa Cruz Bio. Inc.), at a dilution of 1:500. The specific procedures were performed in accordance with the instructions of the ABC and SP kits, DAB was used for color development, and neutral resin was used for mounting. PBS was used instead of the first antibody as a negative control. Cells with positive expression of the test polypeptides were of brown-yellow color, with MMP-2 protein being present in acytoplasm, Bcl-2 expressed in nuclear membrane and cytoplasm, Bax mainly in cytoplasm and partially in nucleus, and caspase-3 mainly in nucleus and partially in cytoplasm. CMIAS image analysis system was used for random selection of fields of slices and automatic selection of sites for analysis, and statistic analysis was performed by using mean optical density values or integral optical density values of the obtained myocardial tissue slices.

caspase-3 = experiment: Immunohistochemistry protein expression in I/R myocardial tissue: caspase-3; conditions: for Caspase-3 protein expression, OD value: 5 days, ischemia 30 min, reperfusion 2 h
Experimental: as §2, §3

[3] = test system: superoxide dismutase (SOD); experiment: Serum SOD activity in rats with myocardial ischemia; conditions: for SOD: serum, 24 h after ligation
Experimental: as §1

[4] = 10 mg/kg intragastric, 0 min after modeling
[5] = 10 mg/kg intragastric, 24 h after modeling
[6] = 20 mg/kg intragastric, 0 min after modeling
[7] = 20 mg/kg intragastric, 24 h after modeling
[8] = 40 mg/kg intragastric, 0 min after modeling
[9] = 40 mg/kg intragastric, 24 h after modeling

SMILES: CC1(C)C2CCC1(C)C(OC(=O)C(O)Cc1ccc(O)c(O)c1)C2 (stereo not drawn) [bornyl salvianate ester, bornyl β-(3,4-dihydroxylphenyl)-α-hydroxylpropionate ester]
- CK (creatine kinase (CK); 10 mg/kg intragastric): 1214.2 ± 160.2 U/L
- CK (creatine kinase (CK); 20 mg/kg intragastric): 894.5 ± 176.3 U/L
- CK (creatine kinase (CK); 40 mg/kg intragastric): 778.0 ± 177.1 U/L
- activity of creatine kinase (CK) (in words) (creatine kinase (CK); all dose groups, 24 h later): decreased
- LDH ([1]; 10 mg/kg intragastric): 1663.7 ± 374.43 U/L
- LDH ([1]; 20 mg/kg intragastric): 2022.7 ± 202.63 U/L
- LDH ([1]; 40 mg/kg intragastric): 1712.5 ± 209.1 U/L
- activity of lactate dehydrogenase (LDH) (in words) ([1]; all dose groups, 24 h later): decreased
- Elevation of ST-T segment [2, 4]: 0.24 ± 0.24 mV
- Elevation of ST-T segment, Change rate [2, 4]: 95.00 ± 78.34%
- Elevation of ST-T segment [2, 5]: 0.17 ± 0.09 mV
- Elevation of ST-T segment, Change rate [2, 5]: 49.00 ± 36.27%
- Elevation of ST-T segment ([2]; 10 mg/kg intragastric, before modeling): 0.21 ± 0.06 mV
- Elevation of ST-T segment [2, 6]: 0.13 ± 0.16 mV
- Elevation of ST-T segment, Change rate [2, 6]: 91.61 ± 116.85%
- Elevation of ST-T segment [2, 7]: 0.11 ± 0.10 mV
- Elevation of ST-T segment, Change rate [2, 7]: 60.77 ± 39.69%
- Elevation of ST-T segment ([2]; 20 mg/kg intragastric, before modeling): 0.17 ± 0.07 mV
- Elevation of ST-T segment [2, 8]: 0.36 ± 0.17 mV
- Elevation of ST-T segment, Change rate [2, 8]: 103.87 ± 148.26%
- Elevation of ST-T segment [2, 9]: 0.18 ± 0.07 mV
- Elevation of ST-T segment, Change rate [2, 9]: 29.01 ± 18.99 %
- Elevation of ST-T segment ([2]; 40 mg/kg intragastric, before modeling): 0.21 ± 0.06 mV
- PPARγ protein expression, OD value (PPARγ; 5 mg/kg ip): 0.16 ± 0.05
- PPARγ protein expression, OD value (PPARγ; 15 mg/kg ip): 0.18 ± 0.06
- PPARγ protein expression, OD value (PPARγ; 35 mg/kg ip): 0.18 ± 0.10
- Bax protein expression, OD value (Bax; 5 mg/kg ip): 0.12 ± 0.03
- Bax protein expression, OD value (Bax; 15 mg/kg ip): 0.09 ± 0.05
- Bax protein expression, OD value (Bax; 35 mg/kg ip): 0.07 ± 0.03
- expression of Bax protein (in words) (Bax; myocardial cells I/R): reduce the expression of Bax and caspase-3 proteins
- Caspase-3 protein expression, OD value (caspase-3; 5 mg/kg ip): 0.35 ± 0.14
- Caspase-3 protein expression, OD value (caspase-3; 15 mg/kg ip): 0.32 ± 0.08
- Caspase-3 protein expression, OD value (caspase-3; 35 mg/kg ip): 0.20 ± 0.07
- expression of caspase-3 protein (in words) (caspase-3; myocardial cells I/R): reduce the expression of Bax and caspase-3 proteins
- SOD ([3]; 10 mg/kg intragastric): 117.66 ± 31.97 U/mL
- SOD ([3]; 20 mg/kg intragastric): 111.32 ± 20.36 U/mL
- SOD ([3]; 40 mg/kg intragastric): 119.63 ± 23.53 U/mL
- superoxide dismutase (SOD) (in words) ([3]; especially in the large dose group): increased
